The values that follow come from ChEMBL document CHEMBL3751706, “Synthesis, biological studies and molecular dynamics of new anticancer RGD-based peptide conjugates for targeted drug delivery” (Bioorg Med Chem, 2016).

Molecules are shown by their SMILES. Active and inactive are the calls of the source. The rule behind the calls is not given here. Where only a bound is given, the exact number is not on record here.

Series [1] is described as follows: Half life in mouse liver homogenates by LC-MS analysis. Format: ADME, tissue-based. The settings on record: liver homogenate.
Series [2] in a line: Chemical stability of the compound at pH 7.4 assessed as half life by LC-MS analysis. The following applies: buffer. Format: physicochemical.
Series [3] can be described thus: Chemical stability of the compound at pH 5.2 assessed as half life by LC-MS analysis. Format: physicochemical. The following applies: buffer.
Series [4] has as its system Liver. As to the kind of experiment: Drug metabolism in mouse liver homogenates assessed as time duration for drug release at 37 degC by LC-MS analysis. Format: ADME, tissue-based. The following applies: tissue homogenate.
The subject of series [5] is HEK293. The series is described as follows: Cytotoxicity against HEK293 […] cells non-expressing alphavbeta3 integrin after 24 hrs by XTT assay. The class given is cell-based. The following applies: human, hek293, 24 h. A general note: Tetrazolium assays rely on reduction of a dye to a coloured formazan, in cell work by metabolically active cells.
For series [6], the system named is NCI-H1299. As to the kind of experiment: Cytotoxicity against human H1299 cells overexpressing alphavbeta3 integrin at >50 uM after 24 hrs by XTT assay. Format: functional, cell-based.
Series [7] has as its system B16-F10. The series is described as follows: Cytotoxicity against mouse B16F10 cells overexpressing alphavbeta3 integrin at 50 to 100 uM after 24 hrs by XTT assay. Format: functional, cell-based.
Series [8] concerns Liver. The series is described as follows: Drug metabolism in mouse liver homogenates assessed as half life for drug release at 37 degC by LC-MS analysis. The class given is ADME, tissue-based. The following applies: tissue homogenate.
The subject of series [9] is HEK293. The series is described as follows: Cytotoxicity against HEK293 […] cells non-expressing alphavbeta3 integrin up to 50 uM after 24 hrs by XTT assay. Format: cell-based. The following applies: human, hek293, 24 h.
Series [10] relates to B16-F10. As to the kind of experiment: Cytotoxicity against mouse B16F10 cells overexpressing alphavbeta3 integrin up to 50 uM after 24 hrs by XTT assay. The class given is functional, cell-based.
Series [11] concerns NCI-H1299. As to the kind of experiment: Cytotoxicity against human H1299 cells overexpressing alphavbeta3 integrin at up to 50 uM after 24 hrs by XTT assay. Format: functional, cell-based.

Turning to `O=C(O)CCCc1ccc(N(CCCl)CCCl)cc1` [CHLORAMBUCIL], the half-life (in general, how long it takes for the measured level to halve) turned out to be 1 h in series [1], 3.33 h in [2] and 3.33 h in series [3].

As for `N=C(N)NCCC[C@@H]1NC(=O)[C@H](COC(=O)CCCc2ccc(N(CCCl)CCCl)cc2)NC(=O)[C@@H](Cc2ccccc2)NC(=O)[C@H](CC(=O)O)NC(=O)CNC1=O`, the Time in series [4] was found to be 45 min. Besides, in [5], the Activity entry was “Toxic”. Besides, the result in [6] and in series [7] was Active. Also, the half-life in series [2] and in series [3] was less than 12 h in each case. The t1/2 in series [8] was 5 min.

For the molecule `CC[C@@]1(O)C(=O)OCc2c1cc1n(c2=O)Cc2cc3ccccc3nc2-1` [CAMPTOTHECIN], the half-life in [1] was 1.75 h; in series [2], less than 96 h; in series [3], less than 96 h. Moreover, in series [9], the Activity result is on record as “Toxic”. Also, the result in series [10] and in [11] was Active.

As for `N=C(N)NCCC[C@@H]1NC(=O)[C@H](CCCCNC(=O)CCCc2ccc(N(CCCl)CCCl)cc2)NC(=O)[C@@H](Cc2ccccc2)NC(=O)[C@H](CC(=O)O)NC(=O)CNC1=O`, the Drug metabolism entry in series [4] was “metabolite_notdetected”. The outcome in series [6] and in [7] was Active. Further, the half-life in series [2] and in series [3] was less than 12 h each time.

`CC[C@@]1(OC(=O)NCCCC[C@@H]2NC(=O)[C@@H](Cc3ccccc3)NC(=O)[C@H](CC(=O)O)NC(=O)CNC(=O)[C@H](CCCNC(=N)N)NC2=O)C(=O)OCc2c1cc1n(c2=O)Cc2cc3ccccc3nc2-1`: the Time in [4] is 10 min. Besides, the half-life in [2] and in series [3] was greater than 96 h in each case. Also, the t1/2 in [8] came to 5 min.
